Experimental data from article PMC9501280, “Anti-Inflammatory Activity of Soluble Epoxide Hydrolase Inhibitors Based on Selenoureas Bearing an Adamantane Moiety” (International Journal of Molecular Sciences, 2022).

How the values were obtained:
[1] = system: LPS-stimulated C57bl/6j peritoneal macrophages; experiment: Suppression of NO synthesis in LPS-stimulated peritoneal macrophages (Griess); format: cell-based, mice
Text: For screening designed compounds according to their probable ability to limit inflammation, we used a test on the inhibition of LPS-induced activation of primary murine macrophages. The most prominent anti-inflammatory activity, defined as the suppression of nitric oxide synthesis by LPS-stimulated macrophages, was evident for compounds 4a and 5b. At the same time, for 4a, the cytotoxic concentration was 4.7–18.4 times higher than the effective anti-inflammatory concentration. […] According to the data obtained, there is no direct correlation between the efficiency of the inhibition of sEH and NO synthesis, which requires further studies of the anti-inflammatory activity of the investigated compounds.
Peritoneal macrophages (PM) were isolated from the peritoneal exudate of 30 male C57bl/6j mice. To accumulate PM, 1 mL of 3% peptone solution was injected intraperitoneally. After 3 days, the mice were euthanized by cervical dislocation. Cells of peritoneal exudate were obtained by aseptic washing of the abdominal cavity with 5 mL of sterile Hanks’s solution (+4–6 °C) without calcium and magnesium ions. The total number and viability of cells were assessed in a Goryaev counting chamber (Russia) with a 0.4% trypan blue staining (Sigma-Aldrich, St. Louis, MO, USA). The cell concentration was adjusted to 1.0 × 10^6 cells/mL in DMEM (Gibco) supplemented with 2 mM L-glutamine (Gibco), 10% heat-inactivated fetal bovine serum (BioClot, Passau, Germany), 100 U/mL penicillin and […] streptomycin (Gibco) and plated 200 μL/well in 96-well transparent plates (SPL Life Sciences Co., Ltd., Pochon, Korea). After 2 h at 37 °C in a humidified atmosphere with 5% CO2, wells were washed to remove nonadherent cells. After 24 h of incubation, 20 μL of the supernatants were substituted with 20 μL of solutions of the test compounds, followed with E. coli O127:B8 LPS (100 ng/mL final concentration) after 30 min. Experiments were run in 3 independent replicates.
The accumulation of nitrite anion (a stable decomposition product of NO produced by iNOS) in the supernatants was determined using a standard Griess reagent. Briefly, 50 μL of supernatants collected 22 h after incubation of PM with the test and control compounds were mixed with 50 μL of 1% sulfonamide in 2.5% H3PO4 and 50 μL of 0.1% N-(1-naphthyl) ethylenediamine in 2.5% H3PO4. After incubation at 23 °C for 10 min. in an orbital shaker, the optical density was determined at a wavelength of 550 nm with a microplate reader Infinite M200 PRO (Tecan, Austria).

[2] = system: E. coli MG1655 and B. subtilis 168 biosensor cells; experiment: Whole-cell bacterial lux-biosensors, whole panel (statements in words); format: cell-based, Escherichia coli, Bacillus subtilis; conditions: concentrations from 1 μM to 1 mM
Experimental: (§1) The study was carried out with use of the following whole-cell bacterial biosensors: Escherichia coli MG1655 pOxyR-lux, E. coli MG1655 pDps, E. coli MG1655 pSoxS-lux, E. coli MG1655 pColD-lux, E. coli MG1655 pAlkA-lux, E. coli MG1655 pXen7, Bacillus subtilis 168 pNK-AlkA, B. subtilis 168 pNK-MrgA and B. subtilis 168 pNK-DinC. These biosensors by the quantitation of bacterial stress promoters’ activity, make it possible to determine oxidative stress caused by hydrogen peroxide and the superoxide anion radical, SOS response, DNA alkylation, or general toxicity in Gram-positive and Gram-negative B. subtilis and E. coli cells. We used concentrations from 1 μM to 1 mM of the studied compounds added to the suspension of biosensor cells.
In this work, biosensor strains based on E. coli MG1655 cells and B. subtilis 168 cells were used.
The bioluminescence of cells was measured using a Synergy HT luminometer (Biotek, Winooski, VT, USA) at room temperature. Lux biosensors based on E. coli were grown to an early logarithmic phase (OD ≈ 0.1) to achieve a background luminescence approximately 100–1000 RLU at the beginning of the measurements. Lux biosensors based on B. subtilis were grown to a logarithmic phase with an optical density OD ≈ 0.6 (and background luminescence of about 10–500 RLU). […] The kinetics of change in luminescence was measured at room temperature.

B. subtilis 168 pNK-AlkA = experiment: Lux-biosensor, DNA alkylation (PalkA); format: cell-based, Bacillus subtilis; conditions: compounds 1 μM to 1 mM; Standard = methyl methanesulfonate 1 mM
Experimental: as §1, with “biosensor cells. […]” for “biosensor cells.”
(§2) The bioluminescence of cells was measured using a Synergy HT luminometer (Biotek, Winooski, VT, USA) at room temperature. Lux biosensors based on E. coli were grown to an early logarithmic phase (OD ≈ 0.1) to achieve a background luminescence approximately 100–1000 RLU at the beginning of the measurements. Lux biosensors based on B. subtilis were grown to a logarithmic phase with an optical density OD ≈ 0.6 (and background luminescence of about 10–500 RLU). […] The kinetics of change in luminescence was measured at room temperature. […]

B. subtilis 168 pNK-DinC = experiment: Lux-biosensor, SOS response (PdinC); format: cell-based, Bacillus subtilis; conditions: compounds 1 μM to 1 mM; Standard = Mitomycin C 30 μM
Experimental: as §1, with “biosensor cells. […]” for “biosensor cells.”
as §2

| SMILES | NO synthesis inhibition (in words) ([1]; LPS-stimulated macrophages) | activation of stress promoters (in words) [2] | max(Kind), B. subtilis 168 pNK-AlkA (B. subtilis 168 pNK-AlkA) | max(Kind), B. subtilis 168 pNK-DinC (B. subtilis 168 pNK-DinC) | cytotoxic concentration versus effective anti-inflammatory concentration ([1]; CC50 (MTT, LDH) over NO synthesis IC50, peritoneal macrophages) | IC50 ([1]; Mus musculus, Peritoneal macrophage, 22 h, read-out: NO Synthesis, IC50 ± SE) [µM] |
| --- | --- | --- | --- | --- | --- | --- |
| [Se]=C(Nc1ccccc1)NC1C2CC3CC(C2)CC1C3 (stereo not drawn) [4g, 1-(Adamantan-2-yl)-3-phenylselenourea] | able to inhibit sEH but not NO synthesis | does not cause an increase in the luminescence | 0.7 ± 0.4 | 1.1 ± 0.3 | – | – |
| [Se]=C(Nc1ccccc1)NC12CC3CC(CC(C3)C1)C2 [4a, 1-(Adamantan-1-yl)-3-phenylselenourea] | – | causes only the activation of stress promoter PoxyR | 0.8 ± 0.4 | 1.1 ± 0.4 | 4.7–18.4 times | 1.6 ± 0.2 |
